Assay results: patent US7241797B2, “Method of increasing milk production” (University of Cincinnati, priority 2002, dated 2007)

Columns and labels:
cultured mammospheres = test: Morphology and morphometry of cultured mammospheres treated with serotonergic agents; format: cell-based, mouse; conditions: for Mammosphere morphology (qualitative): 1 μg·ml−1, replenished each day, 7-day incubation
Description: Qualitative comparison of typical mammospheres in cultures treated with (a) control; (b) 5-HT; (c) methysergide; (d) PCPA. Each of the agents was added to the medium at a concentration of 1 μg·ml^−1 and replenished each day during a 7-day incubation. (e) histogram depicting the median areas (in arbitrary units) of mammospheres sorted by size (n=350, 2 replicate experiments) of control- and methysergide-treated cultures.
In addition to the effects on gene expression shown above, perturbing 5-HT signaling caused morphological changes in mammosphere cultures. Under control conditions the mammospheres were comprised of a boundary layer surrounding an interior lumenal space (FIG. 5a). Qualitatively, mammospheres treated with different serotonergic agents had markedly different structures. […] Those treated with PCPA were very distinctive because the boundary layer was consistently thin, and, there was a very high contrast between the dark boundary and light central space.
We performed a morphometric comparison of control and methysergide-treated mammospheres employing a Macintosh computer using the public domain NIH Image program (developed at the U.S. National Institutes of Health and available on the Internet at http://rsb.info.nih.gov/nih-image/). Threshold was adjusted to automatically outline the mammospheres, and the organoids were sorted into a frequency distribution based on particle sizes. The median size of the methysergide-treated mammospheres was about 40% larger than the control mammospheres (p<0.01; Mann-Whitney U-test; FIG. 5e).
(§1) Primary mouse mammary epithelium was prepared from nulliparous mice by enzymatic digestion and differential trypsinization, modifying the method of Imagawa (Pedchenko, V. K. & Imagawa, W. T. Mammogenic hormones differentially modulate keratinocyte growth factor (KGF)-induced proliferation and KGF receptor expression in cultured mouse mammary gland epithelium. Endocrinology 139,2519-2526 (1998)). Enriched epithelial cells (2×10^5 cells per well) were plated in basement membrane (Matrigel, 0.5 ml/well, BD Biosciences) reconstituted in a 12-well plate so that they formed mammospheres. They were pre-incubated for seven days, and treated with ovine PRL (1 μg/ml) for 2 days. The cell culture experiments were replicated 2-3 times in all cases.

[1] = tested on: TPH mRNA in primary mouse mammary epithelial organoids; test: TPH mRNA induction in primary cultures of mammary epithelial organoids; format: cell-based
Description: (b) TPH induction by milk stasis. Contralateral #3 glands were either open and suckled (+) or sealed with cyanoacrylate glue and unsuckled (−). RT-PCR was performed for TPH and glyceraldehyde-phosphate-dehydrogenase (GPDH), as shown.
(§2) Having established that mammary gland TPH expression was induced in vivo we studied TPH induction in primary cultures of mammary epithelial organoids. These organoids, sometimes referred to as “mammospheres,” secrete milk proteins, fluids and ions vectorially into a closed central lumen when cultured with lactogenic hormones. TPH increased slowly for at least 48 h following addition of PRL to the medium, and the optimum PRL dose was 1 μg/ml (approximately 20 nM) (FIG. 2a). […] First, the time course of TPH mRNA induction was much slower that other genes known to be directly regulated by PRL. Secondly, the in vitro induction was blocked by cycloheximide; and thirdly, the TPH promoter was not induced by PRL in reporter gene assays (unpublished results).
as §1

[2] = tested on: WAP gene expression in cultured mammospheres; test: Milk protein gene expression (RT-PCR) in mammosphere cultures treated with serotonergic agents; format: cell-based, mouse; conditions: cells cultured in 1% fetal serum, WAP constitutively expressed at a low level
Description: Primary mouse mammary cultures were treated with PRL, methysergide (Methy.), or 5-HT as noted (+). RT-PCR products for various genes expressed in the mammary gland are shown by the labels at the left margin.
We tested whether 5-HT might have an autocrine/paracrine effect first by examining the expression of various genes in mammosphere cultures (FIG. 4), and then by morphometry (FIG. 5). Using a broad-spectrum 5-HT receptor antagonist methysergide, in combination with PRL, we observed that the expression levels of several mammary gland genes, including whey acidic protein (WAP), glycosylated cell adhesion molecule-1 (GlyCAM-1) and […]. The effects of both 5-HT and methysergide (agonist and antagonist) were tested using cells cultured in 1% fetal serum, wherein the WAP gene is constitutively expressed at a low level. Under these conditions 5-HT suppressed WAP, and methysergide induced WAP.
Primary mouse mammary epithelium was prepared from nulliparous mice by enzymatic digestion and differential trypsinization, modifying the method of Imagawa (Pedchenko, V. K. & Imagawa, W. T. Mammogenic hormones differentially modulate keratinocyte growth factor (KGF)-induced proliferation and KGF receptor expression in cultured mouse mammary gland epithelium. Endocrinology 139,2519-2526 (1998)). […]

lactating dams (mice) = test: Milk yield of nursing dams given carbidopa injections (nursing-related weight loss as index of milk yield); format: in vivo
Description: Nursing dams were given 4 injections of carbidopa (1 mg/kg body weight) at 12 h intervals (or control vehicle). After the final injection the pups were removed from the dam for 4 h. At the end of 4 h the dams were weighed and reunited with the pups to nurse for 1 h. After the nursing interval the dams were again weighed and the nursing-related weight losses were analyzed as an index of milk yield (Table 1). The litters of lactating dams (mice) were adjusted to 8 pups on day 1 postpartum. Carbidopa (1 mg/kg in 45% hydroxypropyl-β-cyclodextrin) or control vehicle were injected at approximately 12 h intervals beginning in the evening of postpartum day 3. After 4 injections (morning of day 5) pups were separated from the dams for 4 h. At the end of separation interval, the dams were injected with oxytocin (0.2U) and both the dams and their litters and were weighed. The litters were reunited with the dams for a 1 h nursing interval. The weights of the dams were measured after nursing and the differences in the weights of the dams before and after nursing are reported as milk yield. The percent increases with carbidopa-treatment are shown for statistically significant variables. […] Numbers of animals in treatment groups are in parentheses.

TPH promoter = TPH promoter reporter gene assays; format: cell-based; conditions: unpublished results
Description: as §2

[3] = carbidopa 1 mg/kg, 4 injections

N[C@@H](Cc1ccc(Cl)cc1)C(=O)O (racemic) [PCPA, p-chloro-phenylalanine]
Mammosphere morphology (qualitative) (cultured mammospheres): easily visible central lumena

C[C@@H]1C[C@@H]([C@H](O)CC2CC(=O)NC(=O)C2)C(=O)[C@@H](C)C1 [cycloheximide]
Effect on in vitro induction of TPH by PRL [1]: blocked

NCCc1c[nH]c2ccc(O)cc12 [5-HT, 5-hydroxytryptamine]
Effect on WAP gene expression [2]: suppressed
Mammosphere size vs controls (qualitative) (cultured mammospheres; 1 μg·ml−1, 7-day incubation, no quantitative morphometry): smaller than the controls
Mammosphere morphology (qualitative) (cultured mammospheres): either filled or collapsed, with no obvious lumen

CC[C@@H](CO)NC(=O)[C@@H]1C=C2c3cccc4c3c(cn4C)C[C@H]2N(C)C1 [methysergide]
Effect on WAP gene expression [2]: induced
Median size of mammospheres, increase vs control mammospheres (cultured mammospheres; 1 μg·ml−1, 7-day incubation, p<0.01, Mann-Whitney U-test): about 40%
Mammosphere morphology (qualitative) (cultured mammospheres): easily visible central lumena

C[C@@](Cc1ccc(O)c(O)c1)(NN)C(=O)O [Carbidopa, S-(−)-α-hydrazino-3,4-dihydroxy-2-methylbenzenepropanoic acid]
Percent increase in litter weight relative to dam weight with carbidopa treatment vs vehicle control (lactating dams (mice); [3]): >8.1%
Percent increase in milk yield with carbidopa treatment vs vehicle control (lactating dams (mice); [3]): >16.7%
Milk Yield (difference in dam weight before and after 1 h nursing) (lactating dams (mice); carbidopa 1 mg/kg, 4 injections at 12 h intervals, 4 h separation, 1 h nursing, mean ± s.e.m.): 2.1 ± 0.1 g
Percent increase in litter (pup) weight with carbidopa treatment vs vehicle control (lactating dams (mice); carbidopa 1 mg/kg, 4 injections, absolute basis): >11.6%
Litter/Dam (litter weight relative to dam weight) (lactating dams (mice); carbidopa 1 mg/kg, 4 injections, mean ± s.e.m.): 0.93 ± 0.03
Litter Weight (lactating dams (mice); litters of 8 pups, carbidopa 1 mg/kg to dam, 4 injections, mean ± s.e.m.): 36.5 ± 1.8 g

B1: PRL: prolactin, lactogenic hormone; ovine PRL added to the mammosphere cultures (protein, UniProt P01240 31-229, looked up)
Prolactin: TPVCPNGPGNCQVSLRDLFDRAVMVSHYIHNLSSEMFNEFDKRYAQGKGFITMALNSCHTSSLPTPEDKEQAQQTHHEVLMSLILGLLRSWNDPLYHLVTEVRGMKGVPDAILSRAIEIEEENKRLLEGMEMIFGQVIPGAKETEPYPVWSGLPSLQTKDEDARHSAFYNLLHCLRRDSSKIDTYLKLLNCRIIYNNNC
Optimum dose for TPH mRNA induction [1]: 1 µg/mL
Optimum dose for TPH mRNA induction (molar) [1]: approximately 20 nM
Induction of the TPH promoter (TPH promoter): not induced
